Consider 41 compounds from ChEMBL document CHEMBL4041546, “Synthesis and antimicrobial studies of novel derivatives of 4-(4-formyl-3-phenyl-1H-pyrazol-1-yl)benzoic acid as potent anti-Acinetobacter baumannii agents” (Bioorg Med Chem Lett, 2017).

In data set [1] the test system is Bacillus subtilis. The data set is described as follows: Antibacterial activity against Bacillus subtilis by disk diffusion assay. It counts as functional. (A growth-free zone around the sample is the usual read-out of agar diffusion tests.)
The subject of data set [2] is Staphylococcus aureus. The data set can be described thus: Antibacterial activity against methicillin-resistant Staphylococcus aureus ATCC 43300 by disk diffusion assay. The format is functional.
The test system of data set [3] is Staphylococcus aureus. The data set is described as follows: Antibacterial activity against methicillin-resistant Staphylococcus aureus ATCC 43300. The format is functional.
Data set [4] is described as follows: Cytotoxicity against HEK293 cells. Conditions: human. The format is cell-based.
The subject of data set [5] is Acinetobacter baumannii. The data set can be described thus: Antibacterial activity against Acinetobacter baumannii ATCC 19606 by disk diffusion assay. It counts as functional, ATCC 19606 = CIP 70.34 = JCM 6841.
For data set [6], the system named is Escherichia coli. The data set can be described thus: Antibacterial activity against Escherichia coli by disk diffusion assay. The format is functional.
Data set [7] deals with Acinetobacter baumannii. The data set can be described thus: Antibacterial activity against Acinetobacter baumannii ATCC 19606. It counts as functional. The conditions noted are these: ATCC 19606 = CIP 70.34 = JCM 6841.
Data set [8] relates to Acinetobacter baumannii. The data set is described as follows: Antibacterial activity against Acinetobacter baumannii ATCC 19606 at 0.1 M by disk diffusion assay. The format is functional, ATCC 19606 = CIP 70.34 = JCM 6841.
Data set [9] concerns Acinetobacter baumannii. The data set is described as follows: Antibacterial activity against Acinetobacter baumannii ATCC 19606 at 0.01 M by disk diffusion assay. It counts as functional, ATCC 19606 = CIP 70.34 = JCM 6841.
Data set [10] deals with Acinetobacter baumannii. The data set can be described thus: Potency index, ratio of chloramphenicol MIC to compound MIC for Acinetobacter baumannii ATCC 19606. It counts as functional, ATCC 19606 = CIP 70.34 = JCM 6841.
The mark [11] stands for this setting: ATCC 19606 = CIP 70.34 = JCM 6841.

≈ marks a conversion by molar mass, not a printed value. Calls of active or inactive are those of the source. The rule behind the calls is not given here. A value given as a limit tells only on which side of the number the result lay.

As to `O=C(O)c1ccc(-n2cc(/C=N/NC(=O)c3ccc(F)cc3)c(-c3ccccc3)n2)cc1`, the “inhibition zone (IZ)” value in [1] and in data set [2] was “inactive” throughout.

In general, MIC refers to the lowest concentration found to suppress growth. High values mean a less susceptible organism, low ones a more susceptible organism. The CC50 is the concentration at which the toxic effect on the cells reaches its halfway point. Low values mean greater toxicity to the cells, high ones lower toxicity to the cells. As for `O=C(O)c1ccc(-n2cc(CNc3cc(C(F)(F)F)cc(C(F)(F)F)c3)c(-c3ccccc3)n2)cc1`, the “inhibition zone (IZ)” value in data set [1] amounted to 25 mm; in data set [2], 22 mm. The MIC in [3] is 32 µg/mL (≈ 63.3 µM). The same compound registered a CC50 in data set [4] of over 32 µg/mL.

On to `CC(=O)N/N=C/c1cn(-c2ccc(C(=O)O)cc2)nc1-c1ccccc1`, for which the “inhibition zone (IZ)” value in data set [1] and in [2] was “inactive” in each case.

On to `NC(=O)N/N=C/c1cn(-c2ccc(C(=O)O)cc2)nc1-c1ccccc1`, for which the “inhibition zone (IZ)” value in data set [1] and in data set [2] was “inactive” in each case.

On to `O=C(N[C@H](CO)[C@H](O)c1ccc([N+](=O)[O-])cc1)C(Cl)Cl` [CHLORAMPHENICOL], for which the “inhibition zone (IZ)” value in data set [5] is reported as 18 - 22 mm; in [1], 36 mm; in data set [2], 25 - 36 mm; in data set [6] it was 39 mm. The same compound showed an MIC in data set [7] of 16 µg/mL (≈ 49.5 µM).

With `O=C(O)c1ccc(-n2cc(/C=N/NC(=O)c3ccccc3)c(-c3ccccc3)n2)cc1`, the “inhibition zone (IZ)” value in data set [1] and in [2] was 8 mm throughout.

As to `COC(=O)N/N=C/c1cn(-c2ccc(C(=O)O)cc2)nc1-c1ccccc1`, the “inhibition zone (IZ)” value in data set [1] and in [2] was “inactive” in each case.

Regarding `O=C(O)c1ccc(-n2cc(/C=N/NS(=O)(=O)c3ccccc3)c(-c3ccccc3)n2)cc1`, the “inhibition zone (IZ)” value turned out to be 10 mm in data set [1] and 9 mm in [2].

With `O=C(O)c1ccc(-n2cc(CNc3ccc(F)c(Cl)c3)c(-c3ccccc3)n2)cc1`, the “inhibition zone (IZ)” value in [1] and in [2] was 11 mm each time.

With `O=C(O)c1ccc(-n2cc(CNc3ccc(F)c([N+](=O)[O-])c3)c(-c3ccccc3)n2)cc1`, the “inhibition zone (IZ)” value in data set [1] is recorded as 12 mm; in data set [2], 14 mm.

Turning to `O=C(O)c1ccc(-n2cc(/C=N/NC(=O)c3ccncc3)c(-c3ccccc3)n2)cc1`, the “inhibition zone (IZ)” value in data set [1] and in data set [2] was “inactive” each time.

With `Cc1cc(NCc2cn(-c3ccc(C(=O)O)cc3)nc2-c2ccccc2)ccc1Br`, the “inhibition zone (IZ)” value came out at 17 mm in data set [1] and 15 mm in data set [2]. Besides, the minimum inhibitory concentration (MIC) in data set [3] amounted to 16 µg/mL (≈ 34.6 µM). Moreover, the CC50 in data set [4] was determined as 17.9 µg/mL (≈ 38.7 µM).

In the case of `Cc1cc(NCc2cn(-c3ccc(C(=O)O)cc3)nc2-c2ccccc2)ccc1F`, the “inhibition zone (IZ)” value in data set [1] is listed as 16 mm; in data set [2], 15 mm.

With `O=C(O)c1ccc(-n2cc(/C=N/Nc3ccc(F)cc3)c(-c3ccccc3)n2)cc1`, the “inhibition zone (IZ)” value is over 85 mm in data set [8]; 18 mm in data set [1]; 16 mm in [2]; 32 mm in data set [9]; 8 mm in data set [6]. The same compound returned a minimal inhibitory concentration (MIC) in [7] of 8 µg/mL (≈ 20 µM). Also, the CC50 in [4] is over 32 µg/mL.

As for `O=C(O)c1ccc(-n2cc(/C=N/NC(=O)c3ccccc3F)c(-c3ccccc3)n2)cc1`, the “inhibition zone (IZ)” value in data set [1] is 11 mm; in data set [2], 10 mm.

With `O=C(O)c1ccc(-n2cc(/C=N/NC(=O)c3ccccc3O)c(-c3ccccc3)n2)cc1`, the “inhibition zone (IZ)” value in [1] and in [2] was “inactive” throughout.

For `O=C(O)c1ccc(-n2cc(/C=N/Nc3ccccc3)c(-c3ccccc3)n2)cc1`, the “inhibition zone (IZ)” value in data set [5] came out at 28 mm; in data set [1] it was 11 mm; in [2], 10 mm. In data set [6], the “inhibition zone (IZ)” value is “inactive”.

On to `O=C(O)c1ccc(-n2cc(/C=N/Nc3ccccc3F)c(-c3ccccc3)n2)cc1`, for which the entries for the “inhibition zone (IZ)” value in [5], in data set [1] and in data set [2] were 34 mm, 17 mm and 13 mm, respectively. Moreover, the “inhibition zone (IZ)” value in [6] is “inactive”.

`O=C(O)c1ccc(N/N=C/c2cn(-c3ccc(C(=O)O)cc3)nc2-c2ccccc2)cc1`: the “inhibition zone (IZ)” value in data set [5] (setting [11]), in data set [1], in data set [2] and in data set [6] was “inactive” in each case.

Consider `O=C(O)c1ccc(-n2cc(/C=N/Nc3ccc(Br)cc3)c(-c3ccccc3)n2)cc1`, for which the “inhibition zone (IZ)” value was determined as 42 mm in data set [5], 10 mm in [1] and 10 mm in data set [2]. Besides, the “inhibition zone (IZ)” value in [6] is “inactive”. Moreover, the MIC in data set [7] was found to be 8 µg/mL (≈ 17.3 µM). In data set [4], this compound gave a 50% cytotoxic concentration (CC50) of over 32 µg/mL.

Turning to `CN1CCN(/N=C/c2cn(-c3ccc(C(=O)O)cc3)nc2-c2ccccc2)CC1`, the “inhibition zone (IZ)” value in [5] (setting [11]), in [1], in data set [2] and in data set [6] was “inactive” in each case.

In the case of `COc1ccc(C(=O)N/N=C/c2cn(-c3ccc(C(=O)O)cc3)nc2-c2ccccc2)cc1`, the “inhibition zone (IZ)” value in [1] is recorded as 11 mm; in data set [2], 8 mm.

`O=C(O)c1ccc(-n2cc(CNc3cc(C(=O)O)cc(C(=O)O)c3)c(-c3ccccc3)n2)cc1`: the “inhibition zone (IZ)” value in [1] is 9 mm; in data set [2] it was 10 mm.

Take `O=C(O)c1ccc(-n2cc(CNc3ccc(Cl)c(C(F)(F)F)c3)c(-c3ccccc3)n2)cc1`: the “inhibition zone (IZ)” value in data set [1] and in data set [2] was 17 mm throughout. Moreover, the minimal inhibitory concentration (MIC) in data set [3] came out at 32 µg/mL (≈ 67.8 µM). This compound also gave a half-maximal cytotoxic concentration (CC50) in [4] of over 32 µg/mL.

As for `N/N=C/c1cn(-c2ccc(C(=O)O)cc2)nc1-c1ccccc1`, the “inhibition zone (IZ)” value in data set [5] (setting [11]) and in data set [6] was “inactive” throughout. In addition, the “inhibition zone (IZ)” value in data set [1] and in data set [2] was 7 mm each time.

Regarding `O=C(O)c1ccc(-n2cc(CNc3ccc(Cl)c(Cl)c3)c(-c3ccccc3)n2)cc1`, the “inhibition zone (IZ)” value in [1] and in data set [2] was 11 mm each time. The same compound had an MIC in data set [3] of 16 µg/mL (≈ 36.5 µM). The midpoint of cytotoxicity in data set [4], the CC50, lay at 18 µg/mL (≈ 41.1 µM).

Turning to `O=C(O)c1ccc(-n2cc(/C=N/NC(=O)c3ccc4ccccc4c3O)c(-c3ccccc3)n2)cc1`, the “inhibition zone (IZ)” value in data set [1] and in [2] was “inactive” throughout.

With `O=C(O)c1ccc(-n2cc(CNc3ccc(CCO)cc3)c(-c3ccccc3)n2)cc1`, the “inhibition zone (IZ)” value is 10 mm in [1] and 9 mm in data set [2].

For the compound `NC(=S)N/N=C/c1cn(-c2ccc(C(=O)O)cc2)nc1-c1ccccc1`, the “inhibition zone (IZ)” value in data set [1] and in [2] was “inactive” each time.

Consider `O=C(O)c1ccc(-n2cc(/C=N/Nc3ccc(Cl)cc3)c(-c3ccccc3)n2)cc1`, for which the inhibition zone (IZ) was 54 mm in [5], 13 mm in [1], 16 mm in [2] and 8 mm in [6]. This compound registered a minimum inhibitory concentration (MIC) in data set [7] of 4 µg/mL (≈ 9.6 µM). This compound had a CC50 in data set [4] of over 32 µg/mL. Moreover, the Ratio in data set [10] is 4.

Consider `O=C(O)c1ccc(-n2cc(CNc3ccc(F)c(C(F)(F)F)c3)c(-c3ccccc3)n2)cc1`, for which the “inhibition zone (IZ)” value in data set [1] turned out to be 22 mm; in data set [2], 21 mm. Besides, in data set [3], the minimum inhibitory concentration (MIC) amounted to 32 µg/mL (≈ 70.3 µM). The same compound registered a CC50 in [4] of over 32 µg/mL.

`O=C(O)c1ccc(-n2cc(/C=N/NC(=O)c3ccc(O)cc3)c(-c3ccccc3)n2)cc1`: the “inhibition zone (IZ)” value in data set [1] and in [2] was “inactive” throughout.

Consider `O=C(O)c1ccc(-n2cc(/C=N/NC(=O)c3cccnc3)c(-c3ccccc3)n2)cc1`, for which the “inhibition zone (IZ)” value in data set [1] and in [2] was “inactive” in each case.

On to `O=C(O)c1ccc(-n2cc(/C=N/Nc3ccc(Cl)cc3Cl)c(-c3ccccc3)n2)cc1`, for which the “inhibition zone (IZ)” value in data set [5] (setting [11]) and in data set [6] was “inactive” throughout. The “inhibition zone (IZ)” value in data set [1] is reported as 11 mm; in data set [2], 10 mm.

On to `O=C(O)c1ccc(-n2cc(CNc3cccc(C(=O)O)c3)c(-c3ccccc3)n2)cc1`, for which the “inhibition zone (IZ)” value in data set [1] and in data set [2] was “inactive” in each case.

`Cc1ccc(S(=O)(=O)N/N=C/c2cn(-c3ccc(C(=O)O)cc3)nc2-c2ccccc2)cc1`: the “inhibition zone (IZ)” value came out at 11 mm in data set [1] and 12 mm in data set [2].

Consider `Cc1ccccc1NCc1cn(-c2ccc(C(=O)O)cc2)nc1-c1ccccc1`, for which the figures for the “inhibition zone (IZ)” value in data set [1] and in [2] were 16 mm and 14 mm, respectively.

Consider `Cc1ccc(NCc2cn(-c3ccc(C(=O)O)cc3)nc2-c2ccccc2)cc1Cl`, for which the “inhibition zone (IZ)” value is 16 mm in data set [1] and 13 mm in [2]. Moreover, in data set [3], it took 16 µg/mL (≈ 38.3 µM) to inhibit growth (MIC). The compound further registered a CC50 in [4] of 20 µg/mL (≈ 47.9 µM).

As to `O=C(O)c1cn(C2CC2)c2cc(N3CCNCC3)c(F)cc2c1=O` [CIPROFLOXACIN], the “inhibition zone (IZ)” value in [5] is on record as 32 - 37 mm; in [1], 44 mm; in data set [2] it was 36 mm; in [6], 39 mm. The compound also displayed a minimal inhibitory concentration (MIC) in data set [7] of 1.56 µg/mL (≈ 4.71 µM).

On to `O=C(O)c1ccc(-n2cc(/C=N/Nc3ccc([N+](=O)[O-])cc3)c(-c3ccccc3)n2)cc1`, for which the “inhibition zone (IZ)” value in data set [5] was 22 mm. Besides, the “inhibition zone (IZ)” value in data set [1], in data set [2] and in data set [6] was “inactive” each time.

On to `O=C(O)c1ccc(-n2cc(CNc3ccc(Br)c(C(F)(F)F)c3)c(-c3ccccc3)n2)cc1`, for which the figures for the “inhibition zone (IZ)” value in [1] and in data set [2] were 12 mm and 15 mm, respectively. This compound returned an MIC in [3] of 32 µg/mL (≈ 62 µM). The compound further gave a 50% cytotoxic concentration (CC50) in [4] of over 32 µg/mL.
